Experiments:
[1] = test system: Pseudomonas aerguinosa (ATCC 15442); assay: Kinetic absorbance assay of bacterial growth (maximum growth slope), amines and amine pairs with KATHON 886MW biocide; assay type: cell-based; conditions: KATHON 100 ppm; for Maximum Growth Slope: pH 8.5
Method: A kinetic assay was run via absorbance measurements in a 384 well micro-titer plate with 75 μL) plate volume. Pseudomonas aerguinosa (ATCC 15442) was used as the inoculum for this kinetic assay. The organism was grown overnight in Trypticase Soy broth, pelleted, and resuspended in new medium at half its original density. The final inoculum was determined from plate counts on TSA plates spread at the time of use as 8.0×10E10 CFU/mL Each well of the microtiter plate (well volume=75 μL) was filled with 25 μL of a buffered aqueous solution of the amine being tested at the concentration necessary to yield the desired test concentration after dilution, enough Tris buffer to keep the well pH at 8.5, 25 μL of a biocide solution, and 25 μL reconstituted bacterial culture. The pH was adjusted to 8.5 with the buffer. The biocide was KATHON 886MW. The following amines were tested: butylaminoethanol (BAE, a compound according to formula I), butyldiethanolamine (BDEA, a compound according to formula II), octylaminoethanol (OAE, a compound according to formula I), and octyldiethanolamine (ODEA, a compound according to formula II), all at 99% purity): […]
The columns were laid out as follows:
The experiment ran for 20 hours with absorbance measurements taken once every 15 minutes. The data was processed by taking 10 point maximum growth slopes (milliOD per minute) after a 3 hour delay. The results of the above series are shown in FIG. 1, and selected data are tabulated in Table 2, in which biocide (KATHON) was used at a 100 ppm level.

[2] = test system: Pseudomonas aerguinosa (ATCC 27853); assay: End-point absorbance assay of bacterial growth in 384 well microtiter plate, single amines with KATHON 886MW biocide; assay type: cell-based; conditions: for Effectiveness as an enhancer for the biocide: amine 400 ppm with KATHON 886MW up to 50 ppm, assessment in words; for End-point absorbance (660 nm): amine 400 ppm, 48 hours growth, pH 8.5
Method: A kinetic assay of bacterial growth in a 384 well microtiter plate was monitored by absorbance at 660 nm. The bacteria was Pseudomonas aerguinosa (ATCC 27853). The organism was grown overnight in Trypticase Soy Broth (TSB), pelleted, and resuspended in new medium at half its original density. The final inoculum was determined from plate counts on Trypticase Soy Agar (TSA) plates spread at the time of use as 4.5×10E10 CFU/mL. Each well of the microtiter plate (well volume=75 μL) was filled with 25 μL of a buffered aqueous solution of the amine being tested at the concentration necessary to yield the desired test concentration after dilution, enough Tris buffer to keep the well pH at 8.5, 25 μL of a biocide solution, and 25 μL reconstituted bacterial culture. The biocide solution and bacterial inoculum were mixed with TSB nutrient. The biocide utilized was KATHON 886MW (supplied by Rohm & Haas Company, Springhouse, Pa.). KATHON 886 MW is a 15% active solution of ⅔ CMIT (5-chloro-2-methyl-4-isothiazolin-3-one) and ⅓ MIT (2-methyl-4-isothiazolin-3-one). The experimental assessment of bacterial growth was made through an end-point absorbance measurement taken after 48 hours of growth in the various media. The concentration of the 4 different amines was 400 ppm. The concentration of the biocide was an experimental variable. The amines employed in this experiment were decyloxypropylaminopropylamine (DOPAPA), octylaminoethanol (OAE, a compound according to formula I), octyldiethanolamine (ODEA, a compound according to formula II), and dicyclohexylamine (DCHA). All absorbance values are the averages of at least three replicates.

[3] = amine 2000 ppm, 10 point maximum slope after 3 hour delay

| Structure (SMILES) | Comparative effectiveness (runs of Table 2) ([1]; assessment in words) | Maximum Growth Slope ([1]; amine 1000 ppm) [MilliOD/min] | Maximum Growth Slope [1, 3] [MilliOD/min] | Effectiveness as an enhancer for the biocide [2] | End-point absorbance (660 nm) ([2]; KATHON 886MW loading 0 ppm) | End-point absorbance (660 nm) ([2]; KATHON 886MW loading 12 ppm) | End-point absorbance (660 nm) ([2]; KATHON 886MW loading 25 ppm) | End-point absorbance (660 nm) ([2]; KATHON 886MW loading 50 ppm) | Maximum Growth Slope ([1]; amine 250 ppm) [MilliOD/min] | Maximum Growth Slope ([1]; amine 500 ppm) [MilliOD/min] |
| --- | --- | --- | --- | --- | --- | --- | --- | --- | --- | --- |
| CCCCNCCO [BAE, butylaminoethanol] | more effective than BDEA alone | 0.9 | 0.4 |  |  |  |  |  |  |  |
| CCCCN(CCO)CCO [BDEA, butyldiethanolamine] |  | 1.3 | 0.8 |  |  |  |  |  |  |  |
| C1CCC(NC2CCCCC2)CC1 [DCHA, dicyclohexylamine, reference compound] |  |  |  | marginal enhancer | 0.14 | 0.14 | 0.10 | 0.07 |  |  |
| CCCCCCCCCCOCCCNCCCN [DOPAPA, decyloxypropylaminopropylamine, reference compound] |  |  |  | weak or ineffective | app. 0.3 | app. 0.3 | app. 0.3 | app. 0.3 |  |  |
| CCCCCCCCNCCO [OAE, octylaminoethanol] |  |  |  | excellent enhancer | 0 | 0 | 0 | 0 | 0.4 | −0.1 |
| CCCCCCCCN(CCO)CCO [ODEA, octyldiethanolamine] |  |  |  | moderately effective enhancer | 0.12 | 0.08 | 0.08 | 0.03 | 0.6 | 0.4 |
